Laboratory results reported in patent US6458766B1, “Halovir, an antiviral marine natural product, and derivatives thereof” (The Regents of the University of California, priority 1998, dated 2002).
Where two headings read alike, the source gives them in different places. Non-standard residues stand in square brackets, D forms with d. Residues, ends and D or L forms follow the SMILES beside them. *: point of attachment. Myristoyl = CCCCCCCCCCCCCC(=O)*; Hyp = O=C(O)[CH]1C[CH](O)CN1; Leu(ol) = CC(C)C[CH](N)CO; X1 = CC(=O)OCC(CC(C)C)N*; Aib = CC(C)(N)C(=O)O

How the values were obtained:
[1] = system: HSV-1; experiment: MTT assay for antiviral activity against HSV-1 in Vero cells; format: cell-based, Herpes simplex virus; settings: for antiviral activity against HSV-1: pure compounds from C18 HPLC of active fractions; for cells subjected to infection protected: test concentration 2.5 μg/mL, Vero cells, 50 pfu virus, five days incubation
Method: Antiviral activity of the halovirs was determined in vitro against the. HSV-I by an MTT assay (Hitoshi Takeuchi, An application of tetrazolium (MTT) calorimetric assay for screening of anti-herpes simplex virus compounds, Journal of Virological Methods, 33 (1991) 61-71), modified as follows. Vero cells were plated at a concentration of 10,000 cells/well in 100 μL of minimum essential medium (MEM) containing 5% fetal bovine serum (FBS) in 96-well plates. The cells were incubated overnight at 37° C. and 5% CO2. The media was removed by aspiration, and 100 μL of phosphate buffered saline (PBS) was added to each well and then aspirated. The wells were treated with 100 μL of MEM containing 50 plaque forming units (pfu) of virus and incubated for one hour. Each well was then overlayed with 100 μL of media containing 2% FBS and serial dilutions of an appropriate halovir solution. The halovir solution was previously prepared by dissolving the halovir in DMSO. After incubation for five days, each well was treated with 20 μL of a solution of 10 mg/mL of MTT in PBS. […] The media was carefully aspirated, and 100 μL of acidified isopropanol was added to dissolve any formazan produced. Acidified isopropanol solution is prepared by adding 50 mL Triton X100 and 2 mL concentrated HCL to 450 mL isopropanol. The optical density of the wells at 550 nm was determined using an ELISA plate reader. The amount of formazan present is directly proportional to the number of surviving cells in a given well. The amount of formazan were spectrophotometrically measured in wells with no antiviral agent and virus to establish a quantitative standard for 100% cell survival. Similarly wells with only virus were measured and used to establish a quantitative standard for 0% cell survival. At a test concentration of 2.5 μg/mL, Halovirs A, B, C, and D protected 50%, 40%, 33%, and 55%, respectively, of the cells subjected to infection.

[2] = system: HSV-1; format: cell-based, Herpes simplex virus
Method: Four experimental solutions were prepared.
Solution 1: Viral Inactivation
HSV-1 was diluted to 50,000 pfu/ml in 1.35 mL MEM with 0% Fetal Bovine Serum (0% MEM). This was treated with 8.2 μL of a solution of Halovir A dissolved in DMSO at a concentration of 25 mg/mL.
Solution 2: DMSO Inactivation Control
Solution 2 was prepared in an identical manner as solution 1, except that pure DMSO was added to the viral suspension.
This experiment provides a baseline for 100% cell survival. Solution 3 was prepared with 1.35 mL 0% MEM with 8.2 μL DMSO.
Solution 4: Normal Assay Conditions
Virus was diluted in 1.36 mL 0% MEM to a final concentration of 50,000 pfu/mL. No DMSO or Halovir A was added.
All solutions were vortexed for 30 seconds and then shaken at ambient temperature for 2.5 hours. They were then vortexed for 30 seconds, and 100 μL of each was diluted with 9.9 mL of 0% MEM (100×dilution). The diluted solutions are herein referred to as solutions 1-4.
96-well microtiter plates were prepared with Vero cells overnight, washed with PBS, and aspirated as previously described. 100 μL of Solution 1 was added to each well of a microtiter plate containing cells. This was repeated for Solutions 2-4. The plates were incubated at 37° C. and 5% CO2. After one hour, experiment plates prepared with Solutions 1-3 were overlaid with 100 μL of 2% MEM. […]

| Compound | antiviral activity against HSV-1 [1] | cells subjected to infection protected [1] | mean optical density at 550 nm (OD) ([2]; Solution 1: HSV-1 treated with Halovir A for 2.5 hours, 100x dilution, then added to Vero cells, mean of 80 wells) | mean optical density at 550 nm (OD) ([2]; Solution 4: normal assay conditions, untreated virus, overlay with 2% MEM containing 1.5 μg/mL Halovir A after one hour) |
| --- | --- | --- | --- | --- |
| CCCCCCCCCCCCCC(=O)NC(C)(C)C(=O)N1CC(O)CC1C(=O)NC(CC(C)C)C(=O)NC(C(=O)NC(CCC(N)=O)C(=O)NC(CO)CC(C)C)C(C)C (stereo not drawn) [Halovir A, CH3(CH2)12C(O)-Aib-Hyp-Leu-Val-Gln-Leu(OH)] (Myristoyl-[Aib][Hyp]LVQ[Leu(ol)]; configuration not given here) | potent antiviral activity | 50% | 1.18 | 0.32 |
| CCCCCCCCCCCCCC(=O)NC(C)(C)C(=O)N1CC(O)CC1C(=O)NC(CC(C)C)C(=O)NC(C)C(=O)NC(CCC(N)=O)C(=O)NC(CO)CC(C)C (stereo not drawn) [Halovir B, CH3(CH2)12C(O)-Aib-Hyp-Leu-Ala-Gln-Leu(OH)] (Myristoyl-[Aib][Hyp]LAQ[Leu(ol)]; configuration not given here) | potent antiviral activity | 40% |  |  |
| CCCCCCCCCCCCCC(=O)NC(C)(C)C(=O)N1CC(OC(C)=O)CC1C(=O)NC(CC(C)C)C(=O)NC(C(=O)NC(CCC(N)=O)C(=O)NC(COC(C)=O)CC(C)C)C(C)C (stereo not drawn) [Halovir D, CH3(CH2)12C(O)-Aib-Hyp(OAc)-Leu-Val-Gln-Leu(OAc)] (Myristoyl-[Aib][Hyp](Ac)LVQ-X1; configuration not given here) |  | 55% |  |  |
| CCCCCCCCCCCCCC(=O)NC(C)(C)C(=O)N1CCCC1C(=O)NC(CC(C)C)C(=O)NC(C(=O)NC(CCC(N)=O)C(=O)NC(CO)CC(C)C)C(C)C (stereo not drawn) [Halovir C, CH3(CH2)12C(O)-Aib-Pro-Leu-Val-Gln-Leu(OH)] (Myristoyl-[Aib]PLVQ[Leu(ol)]; configuration not given here) | potent antiviral activity | 33% |  |  |
